Laboratory results published in patent US10610517B2, “Compositions and methods for treating neoplastic diseases” (Celgene International II Sàrl, priority 2004, dated 2020).

Assays:
[1] = test system: normal CCD-27sk fibroblasts; assay: cells; assay type: cell-based, human; conditions: Homo sapiens
Description: (§1) Whether the compound of formula (II) or Bortezomib alters proteasome activity in normal lymphocytes and skin fibroblasts was also examined.

[2] = test system: Bcl2-transfected MM.1S cells; assay: MTT viability of Bcl2-transfected MM.1S cells
Method: Bcl2 confers resistance to conventional therapies in cancer cells, including MM. […] Bcl2 can modestly attenuate Bortezomib-induced apoptosis. Thus, whether ectopic expression of Bcl2 in MM.1S cells affects responsiveness to the compound of formula (II) (X=Cl) was evaluated. MM.1S cells were stably transfected with Bcl2 construct and analyzed for alterations in cell viability using an MTT assay. […] Results are mean±SD of three independent experiments.
During apoptosis Bax neutralizes the antiapoptotic function of Bcl-2, thereby facilitating the cyto-c release and caspase-9 activation. Bcl-2 also confers drug resistance in cancer cells, including MM, and provides partial protection against Bortezomib-induced killing. Therefore, whether ectopic expression of Bcl-2 in MM.1S cells affects the ability of the compound of formula (II) or Bortezomib to trigger cytotoxicity and postmitochondrial apoptotic signaling in MM cells was evaluated.

[3] = test system: Lymphocytes from five healthy donors; assay: MTT cytotoxicity on normal lymphocytes; conditions: human, 72 h
Description: Bortezomib therapy is associated with toxicity in patients. […] Results are the mean±SD of three independent experiments.

MM.1S cells [4] = assay: cells
Description: MM.1S cells were also transiently transfected using Cell line Nucleofecto kit V, according to the manufacturer's instructions (Amaxa Biosystems, Germany), with vector alone, DN-caspase-8, DN-caspase-9, or DN-FADD and cotransfected with vector containing green fluorescence protein (GFP) alone.
It was next determined whether inhibition of an upstream signaling pathway that leads to caspase-8 activation affects the response to the compound of formula (II) (X=Cl) or Bortezomib. The Fas-associated death domain (FADD) protein is an important part of the deathinducing signaling complexes (DISCs) that assemble upon engagement of TNF receptor family members, such as Fas, resulting in proteolytic processing and autoactivation of pro-caspase-8. Since both the compound of formula (II) (X=Cl) and Bortezomib trigger caspase-8 activation, the role of FADD during this event in MM cells was evaluated using DN-FADD.

[5] = test system: Chymotrypsin-like proteasome activity; assay type: cell-based, human; conditions: data not shown
Description: as §1

[6] = target: proteasome β-5, β-1, β-2 subunits in MM.1S cells (Homo sapiens, UniProt P28072+P28074+Q99436); assay type: cell-based; conditions: even higher doses; data not shown
Method: In vivo determination of proteasome activity was conducted using a competition experiment with Dansyl-Ahx3L3VS, which covalently modifies all active proteasome subunits. This inhibitor contains a dansyl sulfonamide hexanoyl hapten that can be visualized by immunoblotting using antibodies against the dansyl moiety. […] Cells were lysed by incubating them for 30 mins in NP-40 lysis buffer (50 mM Tris-HCl pH 8.0, 150 mM NaCl, 1% NP-40), followed by 5 min. centrifugation to remove membrane fractions, nuclei, and cell debris. […] Blots were developed by enhanced chemiluminescence (Western Lightning, Perkin-Elmer).

proteasome = proteasome (Homo sapiens, UniProt P28074); conditions: Goldberg & Rock 2002; Adams 2004; cited from earlier work
Chain of proteasome (P28074 60-263): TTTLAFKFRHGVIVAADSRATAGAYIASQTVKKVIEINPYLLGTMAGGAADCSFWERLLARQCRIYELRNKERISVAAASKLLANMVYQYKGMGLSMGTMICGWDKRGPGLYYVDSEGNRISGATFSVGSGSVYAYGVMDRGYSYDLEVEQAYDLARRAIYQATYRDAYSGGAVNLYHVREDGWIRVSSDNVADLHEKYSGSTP

RPMI 8226 MM cells = assay type: in vivo, beige-nude-xid (BNX) mice; conditions: i.v. twice weekly (compound 0.15 mg/kg; Bortezomib 1.0 mg/kg)
[7] = test system: Mouse embryonic fibroblast (MEFs); assay: MTT viability of MEFs with wild-type or knock-out Bax; assay type: cell-based; conditions: 48 h; FIG. 12F
Description: Results are mean±SD of three independent experiments (P<0.05).

Bax = assay: Immunoblot of Bax in mitochondrial protein extracts; assay type: cell-based, human; conditions: MM.1S cells; FIG. 12E
Method: Immunoblot analysis was performed using antibodies to cytochrome-c, Smac, Caspase-8, -9, or -3 (Cell Signaling, Beverly, Mass.), tubulin (Sigma, St. Louis, Mo.), PARP, Hsp60, or Bax (BD Bioscience Pharmingen, San Diego, Calif.). Blots were developed by enhanced chemiluminesence (ECL; Amersham, Arlington Heights, Ill.).
Previous studies have established that Bax induces mitochondrial apoptotic pathway. See Wei, M. C., Zong, W. X., Cheng, E. H., Lindsten, T., Panoutsakopoulou, V., Ross, A. J., Roth, K. A., MacGregor, G. R., Thompson, C. B. & Korsmeyer, S. J. (2001) Science 292, 727-30 and Lei, K., Nimnual, A., Zong, W. X., Kennedy, N. J., Flavell, R. A., Thompson, C. […] Thus, whether MM cell apoptosis induced by the compound of formula (II) (X=Cl) correlates with alterations in Bax was evaluated. […] Blots are representatives of three independent experiments.

MM.1S cells [8] = assay: MTT viability of MM.1S cells with or without rhIL-6 or rhIGF-I; assay type: cell-based, human; conditions: human, 24 h
Description: Adhesion of MM cells to BMSCs induces IL-6 and IGF-I secretion from BMSCs, which not only regulates the growth of MM cells, but also protects against chemotherapy. See Hardin, J., MacLeod, S., Grigorieva, I., Chang, R., Barlogie, B., Xiao, H. & Epstein, J. (1994) Blood 84, 3063-70 and Chauhan, D., Kharbanda, S., Ogata, A., Urashima, M., Teoh, G., Robertson, M., Kufe, D. W. & Anderson, K. C. […] Thus, whether rhIL-6 or rhIGF-I inhibits apoptosis in MM cells induced by the compound of Formula (II) (X=Cl) was evaluated. […] At 24 h cells were harvested and viability analyzed by MTT assays. […] Median viability was 51±2.1% after treatment with Dex and 92±5.5% for Dex+rhIL-6 (P=0.05, as determined by one-sided Wilcoxon rank-sum test). Results are mean±SD of three independent experiments. […] In contrast and as in other studies, both IL-6 and IGF-I block Dex-induced decreased MM.1S cell viability. See Chauhan, D., Hideshima, T. & Anderson, K. C. (2003) Int J Hematol 78, 114-20 and Mitsiades, C. S., Mitsiades, N., Poulaki, V., Schlossman, R., Akiyama, M., Chauhan, D., Hideshima, T., Treon, S. P., Munshi, N. C., Richardson, P. G. & Anderson, K. C.

Row | Structure (SMILES) | IC50 [1] [nM] | increased survival of Bcl-2 transfectants ([2]; Bcl-2- versus vector-transfected, FIG. 14A) [%] | decrease of caspase-9 cleavage in Bcl-2-transfected cells by densitometry ([2]; versus vector-transfected cells, FIG. 14B) [fold] | decrease in viability of normal lymphocytes [3] [%] | increase in survival of DN-FADD-transfected compared to vector-transfected cells (MM.1S cells [4]; FIG. 12D) [%] | IC50 (MM.1S cells [4]; Homo sapiens, MM1.S) [nM] | effect of caspase-8 blockade on triggered cell death (MM.1S cells [4]; IETD-fmk, FIG. 12A) | effect of caspase-9 inhibition on decreased viability (MM.1S cells [4]; LEHD-FMK, FIG. 12A) | survival of DN-caspase-8-transfected compared to DN-caspase-9-transfected cells (MM.1S cells [4]; treated at IC50, FIG. 12B) | effect of caspase-3 inhibition on induced apoptosis (MM.1S cells [4]; z-VAD-fmk, FIG. 12A) | inhibition of Chymotrypsin-like proteasome activity ([5]; 20 nM) [%] | proteasome activity in CCD-27sk fibroblasts ([5]; treatment at the IC50) | inhibition of the β-2 subunits [6] | proteasome activities inhibited (proteasome) | tumor progression (RPMI 8226 MM cells; p<0.01) | survival (RPMI 8226 MM cells; p=0.0137) | cell viability in Bax (WT) and Bax (knock-out) MEFs [7] | Bax levels in mitochondria (Bax) | median cell viability (MM.1S cells [8]) [%]
1 | CC(C)C[C@H](NC(=O)[C@H](Cc1ccccc1)NC(=O)c1cnccn1)B(O)O [Bortezomib, reference compound] | 15 | 21 | 3 | 50 | 16 | 5 | equally blocked | equally blocked | increased the survival to a similar extent | markedly abrogates | 59±11 | inhibited proteasome activity | does not inhibit the β-2 subunits | inhibit only chymotrypsin-like proteasome activity | significantly reduced the tumor progression | prolonged survival | deletion of Bax confers significant resistance | significant accumulation of Bax in mitochondria | 
2 | C[C@@H]1C[C@H]2[C@@H]3CCC4=CC(=O)C=C[C@]4(C)[C@@]3(F)[C@@H](O)C[C@]2(C)[C@@]1(O)C(=O)CO [Dex, reference compound] |  |  |  |  |  |  |  |  |  |  |  |  |  |  |  |  |  |  | 51±2.1
